The text below walks through data of patent US7256203B2, “Dicationic 2,5-diarylfuran aza-analogs as anti-protozoan agents” (The University of North Carolina at Chapel Hill, priority 2002, dated 2007).

Counter-ions that a name gives are not always drawn. Like-named read-outs stand apart in the source and are kept apart here.

Series [1] relates to Plasmodium falciparum. The series is described as follows: In vitro anti-protozoan data, P. f. Type of series: cell-based.
The subject of series [2] is Trypanosoma brucei rhodesiense. Kind of series: In vitro anti-protozoan data, T. b. r. Type of series: cell-based.
For series [3], the system named is Leishmania donovani. Kind of series: In vitro anti-protozoan data, L. d. Type of series: cell-based.
Series [4] deals with STIB900 strain of T. b. r. Kind of series: Mouse model of virulent STIB900 strain of T. b. r. Type of series: in vivo.
In series [5] the test system is T. b. r. The series is described as follows: CNS model in mice (2nd stage human African trypanosomiasis). It is filed as in vivo. The note with it: through day 120 of an experiment slated for 180 days.
Where [6] appears, read: Plasmodium falciparum, in vitro, read-out: IC-50 values versus Plasmodium falciparum (p.f.).
The mark [7] stands for this setting: Plasmodium falciparum, in vitro, read-out: P. f. IC50.
Setting [8] is: Trypanosoma brucei, RHODESIENSE, in vitro, read-out: T. b. r. IC50.
Setting [9] is: in vitro, read-out: T. b. r. IC50.

As to `N=C(NO)c1ccc(-c2ccc(-c3ccc(C(=N)NO)cn3)o2)cc1` [Compound 4, N-Hydroxy-6-{5-[4-(N-hydroxycarbamimidoyl)-phenyl]-furan-2-yl}-nicotinamidine], the IC50 is under 0.01 µM in series [1] (setting [6]), 0.0043 µM in series [1] (setting [7]), 120 µM in series [2] (setting [8]) and over 195 µM in series [3] (Leishmania donovani).
As to `CONC(=N)c1ccc(-c2ccc(-c3ccc(C(=N)NOC)cn3)o2)cc1` [Compound 5, N-Methoxy-6-{5-[4-(N-methoxy-carbamimidoyl)-phenyl]-furan-2-yl}-nicotinamidine], the “cure of virulent STIB900 strain of T. b. r. in a mouse model” value in series [4] is “cure”. In addition, the IC50 was under 0.01 µM in series [1] (setting [6]), 0.0049 µM in series [1] (setting [7]), 37.1 µM in series [2] (setting [8]) and 113 µM in series [3] (Leishmania donovani). Besides, the “parasite free mice in the CNS model” value in series [5] is given as “parasite free mice”.
For `N=C(N)c1ccc(-c2ccc(-c3ccc(C(=N)N)cn3)o2)cc1` [Compound 7, 6-[5-(4-Carbamimidoyl-phenyl)-furan-2-yl]-nicotinamidine], in series [4], the “cure of virulent STIB900 strain of T. b. r. in a mouse model” value is “cure”. In addition, the IC50 was under 0.01 µM in series [1] (Plasmodium falciparum, read-out: IC-50 values versus Plasmodium falciparum (p.f.)); 0.0065 µM in series [1] (Plasmodium falciparum, read-out: P. f. IC50); under 0.01 µM in series [2] (Trypanosoma brucei, RHODESIENSE, read-out: IC-50 values versus Trypanosoma brucei rhodesiense (T.b.r.)); 0.007 µM in series [2] (setting [8]); 101 µM in series [3] (Leishmania donovani).
For `N=C(NO)c1ccc(-c2ccc(-c3ccc(C(=N)NO)cn3)s2)cc1` [Compound 11, N-Hydroxy-6-{5-[4-(N-hydroxycarbamimidoyl)-phenyl]-thiophen-2-yl}-nicotinamidine], the melting point is 293 to 295 °C (dec.). Further, the IC50 in series [1] (setting [7]) is over 10.4 µM. In addition, the IC50 in series [2] (setting [8]) was over 187 µM. Moreover, in series [3] (Leishmania donovani), the IC50 is over 187 µM.
As for `CONC(=N)c1ccc(-c2ccc(-c3ccc(C(=N)NOC)cn3)s2)cc1` [Compound 12, N-Methoxy-6-{5-[4-(N-methoxy-carbamimidoyl)-phenyl]-thiophn-2-yl}-nicotinamidine], the IC50 in series [1] (in vitro, read-out: P. f. IC50) worked out at 0.133 µM; in series [2] (setting [9]) it was 9.43 µM.
In the case of `N=C(NO)c1ccc(-c2ccc(-c3ccc(C(=N)NO)nc3)o2)cc1` [Compound 17, N-Hydroxy-5-{5-[4-(N-hydroxycarbamimidoyl)-phenyl]-furan-2-yl}-pyridine-2-carboxamidine], the melting point was in the range of 276 to 279 °C. In series [1] (setting [7]), the IC50 is over 11.7 µM. Moreover, the IC50 in series [2] (setting [8]) is 200 µM.
The like results for `CONC(=N)c1ccc(-c2ccc(-c3ccc(C(=N)NOC)nc3)o2)cc1` [Compound 18, N-Methoxy-5-{5-[4-(N-methoxycarbamimidoyl)-phenyl]-furan-2-yl}-pyridin-2-carboxamidine] were, in that order, 142 to 143 °C, 8.5 µM and 6.5 µM.
On to `CC(=O)ONC(=N)c1ccc(-c2ccc(-c3ccc(C(=N)NOC(C)=O)nc3)o2)cc1` [Compound 19, N -Acetoxy-5-{5-[4-(N-Acetoxycarbamimidoyl)-phenyl]-furan-2-yl}-pyridine-2-carboxamidine], for which the melting point is 267 to 270 °C.
With `N=C(N)c1ccc(-c2ccc(-c3ccc(C(=N)N)nc3)o2)cc1` [Compound 20, 5-[5-(4-Carbamimidoyl-phenyl)-furan-2-yl]-pyridine-2-carboxamidine actate salt], the IC50 in series [1] (in vitro, read-out: P. f. IC50) was 0.0183 µM; in series [2] (setting [9]) it was 0.0031 µM; in series [3], 47 µM.
On to `N=C(NO)c1ccc(-c2ccc(-c3ccc(C(=N)NO)cn3)o2)nc1` [Compound 22, 2,5-Bis[5-(N-hydroxycarbamimidoyl)-2-pyridyl)furan], for which the melting point was 272 to 274 °C (dec.). Besides, the IC50 in series [1] (setting [7]) was over 0.0102 µM. Besides, the IC50 in series [2] (setting [8]) came to 55.8 µM. In series [3] (Leishmania donovani), this molecule showed an IC50 of 77 µM.
The molecule `CC(=O)ONC(=N)c1ccc(-c2ccc(-c3ccc(C(=N)NOC(C)=O)cn3)o2)nc1` [Compound 23, 2,5-Bis[5-(N-acetoxycarbamimidoyl)-2-pyridyl)furan] yielded a melting point of 299 to 300 °C.
`N=C(N)c1ccc(-c2ccc(-c3ccc(C(=N)N)cn3)o2)nc1` [Compound 24, 2,5-Bis[5-amidine-2-pyridyl)furan]: the IC50 in series [1] (in vitro, read-out: P. f. IC50) was 0.083 µM; in series [2] (setting [9]) it was 0.021 µM; in series [3] it was 193 µM.
Take `CONC(=N)c1ccc(-c2ccc(-c3ccc(C(=N)NOC)cn3)o2)nc1` [Compound 27, 2,5-Bis[5-(N-methoxycarbamimidoyl)-2-pyridyl)furan]: the IC50 is under 0.01 µM in series [1] (setting [6]), 0.00177 µM in series [1] (setting [7]), 11.1 µM in series [2] (setting [8]) and over 166 µM in series [3] (Leishmania donovani).
For `Cc1cc(C(=N)NO)ccc1-c1ccc(-c2ccc(C(=N)NO)cn2)o1` [Compound 29, N-Hydroxy-6-{5-[4-(N-hydroxycarbamimidoyl)-2-methyl-phenyl]-furan-2-yl}-nicotinamidine], the melting point was in the range of 196 to 198 °C.
The same measure, in the same setting: the figure for `CC(=O)ONC(=N)c1ccc(-c2ccc(-c3ccc(C(=N)NOC(C)=O)cc3C)o2)nc1` [Compound 30, N-Acetoxy-6-{5-[4-(N-acetoxycarbamimidoyl)-2-methyl-phenyl]-furan-2-yl}-nicotinamidine] is 203 to 205 °C.
Regarding `N=C(NO)c1ccc(-c2ccc(C=Cc3ccccc3)o2)nc1` [Compound 33, N-Hydroxy-6-(5-styryl-furan-2-yl)-nicotinamidine], the melting point was 230 to 231 °C.
Same read-out and setting: the figure for `N=C(NO)c1ccc(Cc2ccc(-c3ccc(C(=N)NO)cn3)o2)cc1` [Compound 36, N-Hydroxy-6-{5-[4-(N-hydroxycarbamimidoyl)benzyl]-furan-2-yl}-nicotinamidine] is 214 to 216 °C; for `CC(=O)ONC(=N)c1ccc(Cc2ccc(-c3ccc(C(=N)NOC(C)=O)cn3)o2)cc1` [Compound 37, N-Acetoxy-6-{5-[4-(N-acetoxycarbamimidoyl)benzyl]-furan-2-yl}-nicotinamidine] it is 194 to 196 °C.

For orientation: melting point means the temperature, or range, at which the solid turns liquid.
